Measurements reported in the supplement of paper PMC11451515.

Tested on: NOMO1
Experiment: cell viability relative to DMSO control; higher = less cytotoxic
Conditions: 48 h
Outline: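 Leukemia cells (NOMO1 or SEM, 500 cells/well; P12-Ichikawa, 1000 cells/well) were seeded in 5 μl in 1536-well plates after at least four passages of adaptation to each medium. They received library compounds in DMSO by pin dosing, 11 threefold points from 47 μM to 0.79 nM. Luminescence with CellTiter-Glo One was read after 48 h at 37°C. Viability is stated per plate relative to DMSO wells, with cell-free wells as background.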

[1] = HPLM + 10% dialyzed FBS, 0.000781 µM
[2] = HPLM + 10% dialyzed FBS, 0.00234 µM
[3] = HPLM + 10% dialyzed FBS, 0.00702 µM
[4] = HPLM + 10% dialyzed FBS, 0.0211 µM
[5] = HPLM + 10% dialyzed FBS, 0.0632 µM
[6] = HPLM + 10% dialyzed FBS, 0.19 µM
[7] = HPLM + 10% dialyzed FBS, 0.569 µM
[8] = HPLM + 10% dialyzed FBS, 1.71 µM
[9] = HPLM + 10% dialyzed FBS, 5.12 µM
[10] = HPLM + 10% dialyzed FBS, 15.4 µM
[11] = HPLM + 10% dialyzed FBS, 46.1 µM
[12] = RPMI 5 mM glucose + 10% FBS, 0.000781 µM
[13] = RPMI 5 mM glucose + 10% FBS, 0.00234 µM
[14] = RPMI 5 mM glucose + 10% FBS, 0.00702 µM
[15] = RPMI 5 mM glucose + 10% FBS, 0.0211 µM
[16] = RPMI 5 mM glucose + 10% FBS, 0.0632 µM
[17] = RPMI 5 mM glucose + 10% FBS, 0.19 µM
[18] = RPMI 5 mM glucose + 10% FBS, 0.569 µM
[19] = RPMI 5 mM glucose + 10% FBS, 1.71 µM
[20] = RPMI 5 mM glucose + 10% FBS, 5.12 µM
[21] = RPMI 5 mM glucose + 10% FBS, 15.4 µM
[22] = RPMI 5 mM glucose + 10% FBS, 46.1 µM
[23] = RPMI 5 mM glucose + 10% dialyzed FBS, 0.000781 µM
[24] = RPMI 5 mM glucose + 10% dialyzed FBS, 0.00234 µM
[25] = RPMI 5 mM glucose + 10% dialyzed FBS, 0.00702 µM
[26] = RPMI 5 mM glucose + 10% dialyzed FBS, 0.0211 µM
[27] = RPMI 5 mM glucose + 10% dialyzed FBS, 0.0632 µM
[28] = RPMI 5 mM glucose + 10% dialyzed FBS, 0.19 µM
[29] = RPMI 5 mM glucose + 10% dialyzed FBS, 0.569 µM
[30] = RPMI 5 mM glucose + 10% dialyzed FBS, 1.71 µM
[31] = RPMI 5 mM glucose + 10% dialyzed FBS, 5.12 µM
[32] = RPMI 5 mM glucose + 10% dialyzed FBS, 15.4 µM
[33] = RPMI 5 mM glucose + 10% dialyzed FBS, 46.1 µM

SMILES | cell viability [1] [%] | cell viability [2] [%] | cell viability [3] [%] | cell viability [4] [%] | cell viability [5] [%] | cell viability [6] [%] | cell viability [7] [%] | cell viability [8] [%] | cell viability [9] [%] | cell viability [10] [%] | cell viability [11] [%] | cell viability [12] [%] | cell viability [13] [%] | cell viability [14] [%] | cell viability [15] [%] | cell viability [16] [%] | cell viability [17] [%] | cell viability [18] [%] | cell viability [19] [%] | cell viability [20] [%] | cell viability [21] [%] | cell viability [22] [%] | cell viability [23] [%] | cell viability [24] [%] | cell viability [25] [%] | cell viability [26] [%] | cell viability [27] [%] | cell viability [28] [%] | cell viability [29] [%] | cell viability [30] [%] | cell viability [31] [%] | cell viability [32] [%] | cell viability [33] [%]
O=C(NC1CC1)c1cccc(-c2ccc3c(NC(=O)C4CC4)n[nH]c3c2)c1 | 101 | 109 | 117 | 121 | 119 | 109 | 119 | 118 | 122 | 87.6 | 38.3 | 129 | 113 | 122 | 139 | 125 | 115 | 111 | 112 | 123 | 98.7 | 20.2 | 118 | 124 | 123 | 130 | 124 | 129 | 110 | 122 | 132 | 99.7 | 35.3
C[Se]CCC(N)C(=O)O (configuration not stated) | 90.1 | 90.2 | 85.7 | 95.7 | 99.3 | 93 | 93.1 | 59.1 | 83.5 | 69 | 73.7 | 79.9 | 83.5 | 97.2 | 84.4 | 88.5 | 83.3 | 89.3 | 86.7 | 79.4 | 84 | 79 | 77.2 | 87.3 | 85.4 | 81.9 | 91.1 | 89.1 | 73.1 | 77 | 95.7 | 74.2 | 76.2
NC12CC3CC(CC(C3)C1)C2 | 108 | 104 | 102 | 103 | 138 | 121 | 111 | 106 | 101 | 96.4 | 88.5 | 102 | 102 | 102 | 101 | 97 | 108 | 98.2 | 94.5 | 99.1 | 98.5 | 104 | 95.3 | 95.8 | 108 | 97.8 | 93.1 | 105 | 103 | 96 | 88.3 | 97 | 81
CCOC(=O)c1ncn2c1CN(C)C(=O)c1cc(F)ccc1-2 | 131 | 124 | 124 | 117 | 123 | 120 | 109 | 110 | 108 | 90 | 73.6 | 116 | 130 | 118 | 111 | 99.6 | 104 | 106 | 120 | 120 | 108 | 76.8 | 122 | 109 | 110 | 124 | 113 | 107 | 128 | 95.7 | 116 | 103 | 78.8
CC(C)c1ccc2oc3nc(N)c(C(=O)O)cc3c(=O)c2c1 | – | – | – | – | – | – | – | – | – | – | – | 121 | 121 | 128 | 137 | 136 | 128 | 123 | 134 | 133 | 130 | 122 | – | – | – | – | – | – | – | – | – | – | –
CNC(=O)c1c(F)cccc1Nc1nc(Nc2cc3c(cc2OC)CCN3C(=O)CN(C)C)nc2[nH]ccc12 | 89.3 | 118 | 99.9 | 122 | 111 | 88.7 | 87.2 | 76.5 | 58.8 | 62 | 6.14 | 110 | 118 | 128 | 106 | 112 | 117 | 115 | 113 | 116 | 117 | 27.7 | 107 | 111 | 105 | 126 | 117 | 112 | 108 | 103 | 99.2 | 102 | 23.6
COc1ccc(-c2nc3cc(C4=NNC(=O)CC4C)ccc3[nH]2)cc1 (configuration not stated) | 104 | 117 | 107 | 103 | 110 | 119 | 112 | 123 | 119 | 119 | 126 | 91.5 | 102 | 100 | 108 | 117 | 118 | 109 | 114 | 102 | 117 | 118 | 116 | 110 | 111 | 105 | 110 | 118 | 104 | 111 | 116 | 110 | 120
CCC1=C(C)CN(C(=O)NCCc2ccc(S(=O)(=O)NC(=O)N[C@H]3CC[C@H](C)CC3)cc2)C1=O | 97.4 | 93.3 | 105 | 102 | 104 | 112 | 101 | 108 | 87 | 83.3 | 116 | 86.3 | 86.4 | 91.1 | 98.4 | 88.3 | 100 | 90.3 | 89.3 | 95.4 | 91.4 | 95.3 | 82.2 | 97.7 | 97.6 | 92.3 | 99.5 | 93 | 96.3 | 94.1 | 99.3 | 92.5 | 104
